Laboratory results reported in ChEMBL document CHEMBL4725370, “Discovery of Proteolysis-Targeting Chimera Molecules that Selectively Degrade the IRAK3 Pseudokinase” (J Med Chem, 2020).
Calls of active or inactive are those of the source. No cut-off for these calls is given here.

Tests used:
[1] = biological target: Interleukin-1 receptor-associated kinase 1 (Homo sapiens, UniProt P51617); test: Inhibition of recombinant human N-terminal GST-tagged IRAK1 (194 to 712 residues) expressed in baculovirus expression system using 5-FAM-KKKVSRSGLYRSPSMPENLNRPR-COOH as substrate measured after 240 mins by mobility shift assay
Chain of Interleukin-1 receptor-associated kinase 1 (P51617 whole entry, the tested form may be a part): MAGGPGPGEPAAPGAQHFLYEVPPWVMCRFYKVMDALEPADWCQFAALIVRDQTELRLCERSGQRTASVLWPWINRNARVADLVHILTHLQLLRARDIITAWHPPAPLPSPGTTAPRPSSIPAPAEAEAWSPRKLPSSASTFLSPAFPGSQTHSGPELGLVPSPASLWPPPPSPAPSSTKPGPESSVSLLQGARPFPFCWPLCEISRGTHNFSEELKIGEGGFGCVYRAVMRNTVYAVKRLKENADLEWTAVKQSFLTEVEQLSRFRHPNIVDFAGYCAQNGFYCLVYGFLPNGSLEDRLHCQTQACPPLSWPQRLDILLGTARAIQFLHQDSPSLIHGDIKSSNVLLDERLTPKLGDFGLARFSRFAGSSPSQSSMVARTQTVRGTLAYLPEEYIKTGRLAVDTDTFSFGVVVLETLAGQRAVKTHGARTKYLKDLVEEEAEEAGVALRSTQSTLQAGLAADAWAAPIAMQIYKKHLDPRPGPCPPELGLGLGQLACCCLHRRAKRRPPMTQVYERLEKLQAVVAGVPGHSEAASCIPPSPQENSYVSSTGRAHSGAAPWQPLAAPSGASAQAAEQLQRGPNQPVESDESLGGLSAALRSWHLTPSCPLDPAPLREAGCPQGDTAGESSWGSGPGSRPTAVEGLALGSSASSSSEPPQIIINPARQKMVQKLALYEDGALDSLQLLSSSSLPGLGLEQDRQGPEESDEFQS

[2] = biological target: T1, Interleukin-1 receptor-associated kinase 3 (Homo sapiens, UniProt Q9Y616); test: Inhibition of kinase tracer 236 binding to recombinant human full-length GST-tagged IRAK3 expressed in insect cells by Lanthascreen Eu kinase binding assay
T1 sequence (Q9Y616 whole entry): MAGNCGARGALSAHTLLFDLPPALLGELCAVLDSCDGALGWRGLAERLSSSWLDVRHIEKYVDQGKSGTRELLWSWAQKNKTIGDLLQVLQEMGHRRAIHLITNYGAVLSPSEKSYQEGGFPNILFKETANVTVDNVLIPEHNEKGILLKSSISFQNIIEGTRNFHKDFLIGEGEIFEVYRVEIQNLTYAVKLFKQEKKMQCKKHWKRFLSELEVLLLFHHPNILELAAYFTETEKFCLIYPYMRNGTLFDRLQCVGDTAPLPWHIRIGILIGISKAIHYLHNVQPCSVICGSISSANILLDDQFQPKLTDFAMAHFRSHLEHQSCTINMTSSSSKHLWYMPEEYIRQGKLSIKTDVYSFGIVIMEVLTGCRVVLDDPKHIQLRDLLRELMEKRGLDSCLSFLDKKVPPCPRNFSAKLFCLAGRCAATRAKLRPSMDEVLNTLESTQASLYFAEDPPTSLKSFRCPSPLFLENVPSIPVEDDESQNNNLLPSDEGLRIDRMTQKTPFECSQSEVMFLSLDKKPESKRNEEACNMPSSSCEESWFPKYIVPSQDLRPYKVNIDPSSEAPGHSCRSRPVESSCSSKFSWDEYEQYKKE

[3] = biological target: T2, Interleukin-1 receptor-associated kinase 4 (Homo sapiens, UniProt Q9NWZ3); test: Inhibition of recombinant human full-length His-tagged IRAK4 expressed in baculovirus expression system using 5-FAM-IPTSPITTTYFFFKKK-COOH as substrate measured after 240 mins by mobility shift assay
T2 sequence (Q9NWZ3 whole entry): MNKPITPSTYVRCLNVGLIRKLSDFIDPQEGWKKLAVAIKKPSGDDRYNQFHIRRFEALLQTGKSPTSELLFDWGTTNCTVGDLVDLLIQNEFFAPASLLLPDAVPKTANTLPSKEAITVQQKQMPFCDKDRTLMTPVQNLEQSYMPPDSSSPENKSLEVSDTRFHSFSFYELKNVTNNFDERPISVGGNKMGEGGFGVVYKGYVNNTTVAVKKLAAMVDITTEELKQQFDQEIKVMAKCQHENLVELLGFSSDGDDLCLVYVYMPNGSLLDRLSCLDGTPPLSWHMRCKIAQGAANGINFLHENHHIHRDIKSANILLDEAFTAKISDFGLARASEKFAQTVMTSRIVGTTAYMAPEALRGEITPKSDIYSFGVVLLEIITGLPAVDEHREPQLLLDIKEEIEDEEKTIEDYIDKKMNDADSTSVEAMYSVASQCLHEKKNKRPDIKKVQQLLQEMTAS

[4] = biological target: Interleukin-1 receptor-associated kinase 3 (Homo sapiens) (UniProt Q9Y616); test: Inhibition of IRAK3 (unknown origin) at 0.1 uM relative to control
[5] = biological target: Serine/threonine-protein kinase haspin (Homo sapiens) (UniProt Q8TF76); test: Inhibition of GSG2 (unknown origin) at 0.1 uM relative to control
Chain of Serine/threonine-protein kinase haspin (Homo sapiens) (Q8TF76 whole entry): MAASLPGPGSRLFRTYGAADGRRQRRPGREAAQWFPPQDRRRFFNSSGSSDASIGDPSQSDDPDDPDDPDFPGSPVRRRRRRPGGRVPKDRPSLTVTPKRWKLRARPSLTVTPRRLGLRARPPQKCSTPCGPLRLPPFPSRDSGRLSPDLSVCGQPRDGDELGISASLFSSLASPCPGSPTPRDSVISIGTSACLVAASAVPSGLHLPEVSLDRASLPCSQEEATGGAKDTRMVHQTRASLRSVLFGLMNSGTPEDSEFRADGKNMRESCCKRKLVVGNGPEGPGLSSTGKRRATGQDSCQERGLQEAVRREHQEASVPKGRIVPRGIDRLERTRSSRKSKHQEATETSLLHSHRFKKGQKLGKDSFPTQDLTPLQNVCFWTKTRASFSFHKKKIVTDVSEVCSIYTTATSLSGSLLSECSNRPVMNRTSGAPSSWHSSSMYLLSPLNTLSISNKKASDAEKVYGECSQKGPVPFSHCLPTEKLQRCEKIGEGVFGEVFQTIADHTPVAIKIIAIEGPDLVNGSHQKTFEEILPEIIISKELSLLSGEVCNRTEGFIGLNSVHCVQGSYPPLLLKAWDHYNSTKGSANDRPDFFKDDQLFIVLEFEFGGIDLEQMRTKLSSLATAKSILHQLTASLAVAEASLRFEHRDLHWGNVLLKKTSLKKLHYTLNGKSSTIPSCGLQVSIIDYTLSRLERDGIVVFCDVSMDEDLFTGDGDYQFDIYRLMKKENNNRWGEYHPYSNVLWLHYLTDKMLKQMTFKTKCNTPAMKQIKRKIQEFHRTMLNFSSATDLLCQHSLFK

Protein cereblon = Protein cereblon (Homo sapiens, UniProt Q96SW2); test: Inhibition of CRBN (unknown origin)
Chain of Protein cereblon (Q96SW2 whole entry): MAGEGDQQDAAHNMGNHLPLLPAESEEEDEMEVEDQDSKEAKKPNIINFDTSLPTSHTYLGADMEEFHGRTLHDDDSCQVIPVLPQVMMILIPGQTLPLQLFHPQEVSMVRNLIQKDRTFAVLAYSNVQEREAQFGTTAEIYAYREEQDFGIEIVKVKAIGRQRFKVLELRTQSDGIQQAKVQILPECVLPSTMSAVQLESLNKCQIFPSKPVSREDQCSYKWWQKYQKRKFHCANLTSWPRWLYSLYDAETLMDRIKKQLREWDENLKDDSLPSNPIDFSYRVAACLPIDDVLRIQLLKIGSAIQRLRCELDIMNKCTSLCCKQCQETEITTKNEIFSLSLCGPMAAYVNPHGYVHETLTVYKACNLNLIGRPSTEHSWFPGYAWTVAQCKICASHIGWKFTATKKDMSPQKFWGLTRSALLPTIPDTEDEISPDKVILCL

[6] = biological target: T3, Protein cereblon/Interleukin-1 receptor-associated kinase 3 (Homo sapiens, UniProt Q9Y616+Q96SW2); test: Protac activity at CRBN/IRAK3 in LPS-induced human THP1 cells assessed as induction of IRAK3 degradation after 16 hrs by Western blot analysis relative to control; format: cell-based; details: THP-1
T3 sequence (Q96SW2 whole entry, looked up, one chain of several): as the sequence (Q96SW2 whole entry) above

CDK8/Cyclin C = CDK8/Cyclin C (Homo sapiens, UniProt P49336); test: Inhibition of CDK8/cyclin C (unknown origin); format: protein-complex assay
Chain of CDK8/Cyclin C (P49336 whole entry): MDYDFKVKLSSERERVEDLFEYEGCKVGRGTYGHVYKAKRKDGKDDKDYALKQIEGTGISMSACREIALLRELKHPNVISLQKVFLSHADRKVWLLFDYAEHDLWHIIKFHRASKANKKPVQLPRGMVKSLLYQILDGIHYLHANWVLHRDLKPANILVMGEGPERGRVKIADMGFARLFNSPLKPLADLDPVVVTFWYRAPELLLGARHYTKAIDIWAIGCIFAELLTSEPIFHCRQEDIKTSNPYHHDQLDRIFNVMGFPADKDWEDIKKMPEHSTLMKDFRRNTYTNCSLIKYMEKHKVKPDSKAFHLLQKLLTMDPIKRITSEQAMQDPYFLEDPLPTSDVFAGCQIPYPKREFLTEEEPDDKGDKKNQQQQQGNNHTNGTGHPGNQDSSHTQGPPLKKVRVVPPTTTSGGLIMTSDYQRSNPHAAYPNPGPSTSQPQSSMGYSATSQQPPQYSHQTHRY
Chain of CDK8/Cyclin C (P24863 whole entry, further chain): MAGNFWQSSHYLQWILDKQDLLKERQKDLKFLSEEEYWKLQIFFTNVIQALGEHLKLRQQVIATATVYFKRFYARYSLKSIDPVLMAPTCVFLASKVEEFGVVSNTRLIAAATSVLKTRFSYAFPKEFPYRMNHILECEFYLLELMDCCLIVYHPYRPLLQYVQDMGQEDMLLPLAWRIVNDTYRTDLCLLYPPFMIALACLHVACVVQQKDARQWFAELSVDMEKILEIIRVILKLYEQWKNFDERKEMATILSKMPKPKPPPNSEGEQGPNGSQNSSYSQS

[7] = biological target: NT-3 growth factor receptor (Homo sapiens, UniProt Q16288); test: Inhibition of NTRK3 (unknown origin)
Chain of NT-3 growth factor receptor (Q16288 whole entry): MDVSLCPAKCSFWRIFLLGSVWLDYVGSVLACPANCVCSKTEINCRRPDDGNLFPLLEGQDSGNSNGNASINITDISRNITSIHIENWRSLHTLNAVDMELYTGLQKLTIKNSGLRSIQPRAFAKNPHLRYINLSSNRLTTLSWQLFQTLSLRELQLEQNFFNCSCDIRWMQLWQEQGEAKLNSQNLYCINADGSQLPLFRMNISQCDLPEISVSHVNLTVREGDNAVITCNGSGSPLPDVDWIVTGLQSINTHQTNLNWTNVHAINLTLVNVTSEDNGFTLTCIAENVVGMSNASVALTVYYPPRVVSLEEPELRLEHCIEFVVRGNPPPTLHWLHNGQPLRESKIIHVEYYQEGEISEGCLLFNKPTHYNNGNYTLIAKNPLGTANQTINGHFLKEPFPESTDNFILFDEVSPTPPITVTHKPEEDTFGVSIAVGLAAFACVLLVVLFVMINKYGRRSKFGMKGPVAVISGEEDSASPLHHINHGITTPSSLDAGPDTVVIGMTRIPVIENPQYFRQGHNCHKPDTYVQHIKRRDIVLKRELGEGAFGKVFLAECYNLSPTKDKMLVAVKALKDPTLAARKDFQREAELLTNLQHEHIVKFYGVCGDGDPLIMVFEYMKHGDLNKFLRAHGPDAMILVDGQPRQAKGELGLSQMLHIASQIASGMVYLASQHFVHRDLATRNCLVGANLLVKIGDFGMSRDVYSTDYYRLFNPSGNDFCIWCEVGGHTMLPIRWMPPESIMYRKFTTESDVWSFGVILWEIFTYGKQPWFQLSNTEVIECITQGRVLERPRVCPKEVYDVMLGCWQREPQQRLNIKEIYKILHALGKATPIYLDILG

[8] = biological target: T1, Interleukin-1 receptor-associated kinase 3; test: Displacement of polymer supported probe 25 binding to IRAK3 in human THP-1 cell lysates preincubated for 45 mins under shaking condition followed by probe addition and measured after 30 mins by mass spectrometry based chemoproteomic analysis; format: subcellular; details: read-out: Kd(app)
[9] = biological target: T2, Interleukin-1 receptor-associated kinase 4; test: Displacement of polymer supported probe 25 binding to IRAK4 in human THP-1 cell lysates preincubated for 45 mins under shaking condition followed by probe addition and measured after 30 mins by mass spectrometry based chemoproteomic analysis; format: subcellular; details: read-out: Kd(app)
THP-1 [10] = test: Selectivity ratio of Kd(app) for displacement of polymer supported probe 25 binding to IRAK4 in human THP-1 cell lysates to Kd(app) for displacement of polymer supported probe 25 binding to IRAK3 in human THP-1 cell lysates
THP-1 [11] = test: Selectivity ratio of Kd(app) for displacement of polymer supported probe 25 binding to GSG2 in human THP-1 cell lysates to Kd(app) for displacement of polymer supported probe 25 binding to IRAK3 in human THP-1 cell lysates
[12] = biological target: Protein cereblon/Delta(24)-sterol reductase (Homo sapiens) (UniProt Q15392+Q96SW2); test: Protac activity at CRBN/DHCR24 in LPS-induced human THP1 cells assessed as induction of DHCR24 degradation at 0.1 uM measured after 6 hrs by HPLC-MS based global proteomic analysis relative to control; format: cell-based; details: THP-1
Chain of Protein cereblon/Delta(24)-sterol reductase (Homo sapiens) (Q15392 whole entry, looked up): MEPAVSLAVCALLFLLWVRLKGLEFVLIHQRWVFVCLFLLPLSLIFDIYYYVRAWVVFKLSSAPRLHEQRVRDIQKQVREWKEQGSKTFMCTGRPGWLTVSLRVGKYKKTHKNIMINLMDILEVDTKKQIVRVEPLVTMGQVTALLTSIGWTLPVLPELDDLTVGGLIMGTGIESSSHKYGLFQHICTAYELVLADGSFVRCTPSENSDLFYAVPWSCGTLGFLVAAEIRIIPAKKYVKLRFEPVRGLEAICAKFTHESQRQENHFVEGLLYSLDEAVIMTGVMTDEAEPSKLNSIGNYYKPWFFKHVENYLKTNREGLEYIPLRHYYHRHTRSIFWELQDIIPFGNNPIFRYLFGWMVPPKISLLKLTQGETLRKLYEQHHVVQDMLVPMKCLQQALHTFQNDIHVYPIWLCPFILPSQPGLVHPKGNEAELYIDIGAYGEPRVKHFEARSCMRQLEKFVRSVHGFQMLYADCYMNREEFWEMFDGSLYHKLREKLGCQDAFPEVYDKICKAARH
Chain of Protein cereblon/Delta(24)-sterol reductase (Homo sapiens) (Q96SW2 whole entry, looked up): as the sequence (Q96SW2 whole entry) above

[13] = biological target: Protein cereblon/Interleukin-1 receptor-associated kinase 4 (Homo sapiens) (UniProt Q9NWZ3+Q96SW2); test: Protac activity at CRBN/IRAK4 in LPS-induced human THP1 cells assessed as induction of IRAK4 degradation at 0.1 uM measured after 6 hrs by HPLC-MS based global proteomic analysis; format: cell-based; details: THP-1
Chain of Protein cereblon/Interleukin-1 receptor-associated kinase 4 (Homo sapiens) (Q96SW2 whole entry, looked up, one chain of several): as the sequence (Q96SW2 whole entry) above

[14] = biological target: T3, Protein cereblon/Interleukin-1 receptor-associated kinase 3; test: Protac activity at CRBN/IRAK3 in human THP1 cells assessed as induction of IRAK3 degradation at 0.1 uM measured after 24 hrs by Western blot analysis; format: cell-based; details: THP-1
[15] = biological target: T3, Protein cereblon/Interleukin-1 receptor-associated kinase 3; test: Protac activity at CRBN/IRAK3 in human THP1 cells assessed as induction of IRAK3 degradation at 0.1 uM measured after 2 to 72 hrs by Western blot analysis; format: cell-based; details: THP-1, time hrs 2-72
[16] = biological target: T3, Protein cereblon/Interleukin-1 receptor-associated kinase 3; test: Protac activity at CRBN/IRAK3 in human THP1 cells assessed as induction of IRAK3 degradation at 0.1 uM measured after 6 hrs in presence of IRAK3 ligand cis-1-(4-(4-((5-Isopropylpyrrolo[2,1-f][1,2,4]triazin-4-yl)amino)-cyclohexyl)piperazin-1-yl)ethanone by Western blot analysis; format: cell-based; details: THP-1
[17] = biological target: T3, Protein cereblon/Interleukin-1 receptor-associated kinase 3; test: Protac activity at CRBN/IRAK3 in human THP1 cells assessed as induction of IRAK3 degradation at 0.1 uM measured after 6 hrs in presence of 10 uM thalidomide by Western blot analysis; format: cell-based; details: THP-1
[18] = biological target: T3, Protein cereblon/Interleukin-1 receptor-associated kinase 3; test: Protac activity at CRBN/IRAK3 in human PBMC derived primary macrophages assessed as induction of IRAK3 degradation at 0.3 uM preincubated for 8 hrs followed by LPS-stimulation and measured after 8 to 32 hrs by Western blot analysis; format: tissue-based; details: Primary macrophage

IC50 [1]: 2.3 µM
IC50 [2]: 0.005 µM
IC50 [3]: 1.4 µM
inhibition [4]: 93%
inhibition [5]: 57%
IC50 (Protein cereblon): 0.46 µM
Emax [6]: 98%
IC50 (CDK8/Cyclin C): 0.036 µM
IC50 [7]: 0.1 µM
Kd [8]: 0.034 µM
Kd [9]: 3.6 µM
fold change (FC) [12]: -1.5
Activity [13]: inactive
Activity [14]: Active
Activity [15]: Active
Activity [16]: inactive
Activity [17]: inactive
Activity [18]: Active
Structure (SMILES): CC(C)c1ccn2ncnc(N[C@H]3CC[C@@H](N4CCN(C(=O)CCC(=O)N5CCC(CCN6CCN(c7ccc8c(c7)C(=O)N(C7CCC(=O)NC7=O)C8=O)CC6)CC5)CC4)CC3)c12 (stereo not given in full)
Selectivity ratio (THP-1 [10]): 105
Selectivity ratio (THP-1 [11]): 23
